Test results: PubChem BioAssay (NCI)
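Results reflect a 48-hour exposure of cells in 96-well plates to compound at five concentrations. GI50 = concentration required for 50% inhibition of growth. The concentration for full growth arrest is given as TGI.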

Experiments:
Assay in all cases: NCI anticancer screen, dose series, 48 h
HL-60(TB) leukemia = system: HL-60(TB) leukemia
T-47D breast = system: T-47D breast
SK-MEL-2 melanoma = system: SK-MEL-2 melanoma
COLO 205 colon = system: COLO 205 colon
BT-549 breast = system: BT-549 breast
U251 CNS = system: U251 CNS
SN12C renal = system: SN12C renal
A498 renal = system: A498 renal
OVCAR-3 ovarian = system: OVCAR-3 ovarian
SR leukemia = system: SR leukemia
EKVX NSCLC = system: EKVX NSCLC
RPMI-8226 leukemia = system: RPMI-8226 leukemia
UACC-62 melanoma = system: UACC-62 melanoma
MDA-MB-231 breast = system: MDA-MB-231 breast
DU-145 prostate = system: DU-145 prostate
HCT-15 colon = system: HCT-15 colon
A549 NSCLC = system: A549 NSCLC
NCI/ADR-RES ovarian = system: NCI/ADR-RES ovarian
PC-3 prostate = system: PC-3 prostate
UO-31 renal = system: UO-31 renal
ACHN renal = system: ACHN renal
RXF 393 renal = system: RXF 393 renal
HCC-2998 colon = system: HCC-2998 colon
NCI-H226 lung = system: NCI-H226 lung
CAKI-1 renal = system: CAKI-1 renal
OVCAR-8 ovarian = system: OVCAR-8 ovarian
SW-620 colon = system: SW-620 colon
SK-OV-3 ovarian = system: SK-OV-3 ovarian
HOP-92 NSCLC = system: HOP-92 NSCLC
MALME-3M melanoma = system: MALME-3M melanoma
SF-295 CNS = system: SF-295 CNS
CCRF-CEM leukemia = system: CCRF-CEM leukemia
SNB-19 CNS = system: SNB-19 CNS
OVCAR-5 ovarian = system: OVCAR-5 ovarian
OVCAR-4 ovarian = system: OVCAR-4 ovarian
NCI-H522 lung = system: NCI-H522 lung
NCI-H23 lung = system: NCI-H23 lung
SF-268 CNS = system: SF-268 CNS
MOLT-4 leukemia = system: MOLT-4 leukemia
SK-MEL-5 melanoma = system: SK-MEL-5 melanoma
SNB-75 CNS = system: SNB-75 CNS
HOP-62 NSCLC = system: HOP-62 NSCLC
MDA-MB-435 = system: MDA-MB-435
LOX IMVI melanoma = system: LOX IMVI melanoma
NCI-H460 lung = system: NCI-H460 lung
TK-10 renal = system: TK-10 renal
MCF7 breast = system: MCF7 breast
786-0 renal = system: 786-0 renal
M14 melanoma = system: M14 melanoma
SF-539 CNS = system: SF-539 CNS
HS 578T breast = system: HS 578T breast
SK-MEL-28 melanoma = system: SK-MEL-28 melanoma
KM12 colon = system: KM12 colon
K-562 leukemia = system: K-562 leukemia
HCT-116 colon = system: HCT-116 colon
UACC-257 melanoma = system: UACC-257 melanoma
HT29 colon = system: HT29 colon
IGROV1 ovarian = system: IGROV1 ovarian

For CCCCCCCCCCCC1=NC(C)(C)CN1CCO, the GI50 (HL-60(TB) leukemia) was 3.3 µM, the TGI (HL-60(TB) leukemia) was 13.7 µM and the GI50 (T-47D breast) was 4.04 µM. It also gave a TGI (T-47D breast) of 16.9 µM, a GI50 (SK-MEL-2 melanoma) of 8.15 µM and a TGI (SK-MEL-2 melanoma) of 22.4 µM. The GI50 (COLO 205 colon) was 1.85 µM, the TGI (COLO 205 colon) was 3.45 µM and the GI50 (BT-549 breast) was 13.6 µM. The TGI (BT-549 breast) was 34.3 µM, the GI50 (U251 CNS) was 2.8 µM and the TGI (U251 CNS) was 9.46 µM. For the same compound, the GI50 (SN12C renal) was 9.95 µM, the TGI (SN12C renal) was 24.8 µM and the GI50 (A498 renal) was 15.6 µM. The TGI (A498 renal) was 31.8 µM, the GI50 (OVCAR-3 ovarian) was 5.87 µM and the TGI (OVCAR-3 ovarian) was 11.3 µM. It also gave a GI50 (SR leukemia) of 2.38 µM, a TGI (SR leukemia) of 5.79 µM and a GI50 (EKVX NSCLC) of 10.7 µM. The TGI (EKVX NSCLC) was 29.5 µM, the GI50 (RPMI-8226 leukemia) was 2.3 µM and the TGI (RPMI-8226 leukemia) was 7.46 µM. The GI50 (UACC-62 melanoma) was 1.97 µM, the TGI (UACC-62 melanoma) was 4.41 µM and the GI50 (MDA-MB-231 breast) was 3.78 µM. For the same compound, the TGI (MDA-MB-231 breast) was 15.2 µM, the GI50 (DU-145 prostate) was 10.2 µM and the TGI (DU-145 prostate) was 21.9 µM. The GI50 (HCT-15 colon) was 1.98 µM, the TGI (HCT-15 colon) was 4.42 µM and the GI50 (A549 NSCLC) was 6.93 µM. It also gave a TGI (A549 NSCLC) of 21.9 µM, a GI50 (NCI/ADR-RES ovarian) of 13.9 µM and a TGI (NCI/ADR-RES ovarian) of 29.5 µM. The GI50 (PC-3 prostate) was 3.29 µM, the TGI (PC-3 prostate) was 17.2 µM and the GI50 (UO-31 renal) was 7.25 µM. For the same compound, the TGI (UO-31 renal) was 21 µM, the GI50 (ACHN renal) was 9.05 µM and the TGI (ACHN renal) was 23.5 µM. For the same compound, the GI50 (RXF 393 renal) was 3.94 µM, the TGI (RXF 393 renal) was 10.5 µM and the GI50 (HCC-2998 colon) was 1.87 µM. The TGI (HCC-2998 colon) was 3.63 µM, the GI50 (NCI-H226 lung) was 15.4 µM and the TGI (NCI-H226 lung) was 36.2 µM. For the same compound, the GI50 (CAKI-1 renal) was 4.57 µM, the TGI (CAKI-1 renal) was 18.9 µM and the GI50 (OVCAR-8 ovarian) was 10.7 µM. For the same compound, the TGI (OVCAR-8 ovarian) was 29.9 µM, the GI50 (SW-620 colon) was 1.95 µM and the TGI (SW-620 colon) was 3.94 µM. It also gave a GI50 (SK-OV-3 ovarian) of 14.8 µM, a TGI (SK-OV-3 ovarian) of 29.2 µM and a GI50 (HOP-92 NSCLC) of 1.29 µM. It also gave a TGI (HOP-92 NSCLC) of 8.11 µM, a GI50 (MALME-3M melanoma) of 10.2 µM and a TGI (MALME-3M melanoma) of 29 µM. The GI50 (SF-295 CNS) was 2.98 µM, the TGI (SF-295 CNS) was 9.85 µM and the GI50 (CCRF-CEM leukemia) was 3.54 µM. It also gave a TGI (CCRF-CEM leukemia) of 18.4 µM, a GI50 (SNB-19 CNS) of 15.1 µM and a TGI (SNB-19 CNS) of 30.9 µM. For the same compound, the GI50 (OVCAR-5 ovarian) was 15.9 µM, the TGI (OVCAR-5 ovarian) was 30.9 µM and the GI50 (OVCAR-4 ovarian) was 7.45 µM. It also gave a TGI (OVCAR-4 ovarian) of 21.5 µM, a GI50 (NCI-H522 lung) of 4.57 µM and a TGI (NCI-H522 lung) of 13 µM. It also gave a GI50 (NCI-H23 lung) of 5.56 µM, a TGI (NCI-H23 lung) of 18.6 µM and a GI50 (SF-268 CNS) of 6.68 µM. It also gave a TGI (SF-268 CNS) of 20.3 µM, a GI50 (MOLT-4 leukemia) of 3.23 µM and a TGI (MOLT-4 leukemia) of 9.94 µM. It also gave a GI50 (SK-MEL-5 melanoma) of 12 µM, a TGI (SK-MEL-5 melanoma) of 25.1 µM and a GI50 (SNB-75 CNS) of 7.93 µM. For the same compound, the TGI (SNB-75 CNS) was 21.6 µM, the GI50 (HOP-62 NSCLC) was 4.6 µM and the TGI (HOP-62 NSCLC) was 16.2 µM. For the same compound, the GI50 (MDA-MB-435) was 2.51 µM, the TGI (MDA-MB-435) was 6.98 µM and the GI50 (LOX IMVI melanoma) was 1.97 µM. For the same compound, the TGI (LOX IMVI melanoma) was 4.65 µM, the GI50 (NCI-H460 lung) was 2.88 µM and the TGI (NCI-H460 lung) was 7.66 µM. The GI50 (TK-10 renal) was 10.8 µM, the TGI (TK-10 renal) was 28.9 µM and the GI50 (MCF7 breast) was 2.41 µM. It also gave a TGI (MCF7 breast) of 6.09 µM, a GI50 (786-0 renal) of 6.09 µM and a TGI (786-0 renal) of 19 µM. It also gave a GI50 (M14 melanoma) of 1.92 µM, a TGI (M14 melanoma) of 3.74 µM and a GI50 (SF-539 CNS) of 4.37 µM. It also gave a TGI (SF-539 CNS) of 8.79 µM, a GI50 (HS 578T breast) of 7.51 µM and a TGI (HS 578T breast) of 25.6 µM. For the same compound, the GI50 (SK-MEL-28 melanoma) was 2.12 µM, the TGI (SK-MEL-28 melanoma) was 4.35 µM and the GI50 (KM12 colon) was 2.85 µM. It also gave a TGI (KM12 colon) of 7.57 µM, a GI50 (K-562 leukemia) of 2.44 µM and a TGI (K-562 leukemia) of 5.57 µM. For the same compound, the GI50 (HCT-116 colon) was 1.94 µM, the TGI (HCT-116 colon) was 3.76 µM and the GI50 (UACC-257 melanoma) was 3.63 µM. It also gave a TGI (UACC-257 melanoma) of 11.5 µM, a GI50 (HT29 colon) of 2.12 µM and a TGI (HT29 colon) of 5.05 µM. It also gave a GI50 (IGROV1 ovarian) of 2.57 µM and a TGI (IGROV1 ovarian) of 6.67 µM.
